# Tests used:
# Th17 [1] = assay: Th17 activity by flow cytometry in rheumatoid arthritis disease model with metabolic syndrome; assay type: cell-based; conditions: flow cytometry anti-CD4, anti-IL-17
# Description: (§1) Further, the incubated cells were analyzed by flow cytometry using anti-CD4-percp and anti-IL-17-Pe fluorescent antibodies, and as a result, it was verified that SD-196, 216 and 217 suppressed the activity of Th17 and simultaneously activated the expression of the regulatory T cells (Treg) (see FIG. 13).
# [2] = Cytotoxicity (MTT) in rheumatoid arthritis disease model with metabolic syndrome; assay type: cell-based
# Description: (§2) In order to examine cytotoxicity of the biguanide derivative compound of the present invention, an MTT assay was performed. Cells were isolated from the spleen in a normal mouse group and the isolated cells were incubated for 3 days in the concentration of 0.5 μg/ml of anti-CD3 or 100 ng/ml of LPS 100, and metformin, SD-196, SD-216 or SD-217 was treated for each concentration and incubated for 3 days.
# as §1
# osteoclast = assay: Osteoclast differentiation, TRAP staining; assay type: cell-based, mouse; conditions: bone marrow of arthritis animal model, MCSF 10 ng/ml and RANKL 50 ng/ml
# Description: In order to verify whether the biguanide derivative compound of the present invention suppresses the osteoclast differentiation, while a bone marrow extracted from a leg in an arthritis animal model was treated with MCSF (10 ng/ml) and RANKL (50 ng/ml) to differentiate the osteoclast, metformin, SD-196, SD-216, and SD-217 were treated, respectively, and the differentiation degrees of the osteoclast were evaluated. The evaluation was performed by using TRAP straining.
# IL-17 [3] = assay: IL-17 sandwich ELISA, Example 8-3; assay type: cell-based, mouse; conditions: incubated supernatant
# Description: (§3) In order to evaluate an arthritis therapeutic effect of the biguanide derivative compound of the present invention, in a rheumatoid arthritis animal model, cytotoxicity, generation of autoantibody, expression of inflammatory cytokines and regulatory T cells (Treg), and osteoclast differentiation were measured. Like Examples, metformin was used as a control group. In order to evaluate an effect of suppressing the expression of the inflammatory cytokine of the biguanide derivative compound of the present invention, the incubated supernatant was collected and the expression degrees of IL-17 and TNF-α of a mouse were examined by using a sandwich ELISA. […] of a monoclonal anti-IL-17 or anti-TNF-α was reacted in a 96-well plate at 4° C. overnight and then a non-specific binding was blocked by a blocking solution (1% BSA/PBST) after the reaction. An IL-17 or TNF-α recombinant was continuously diluted by 1/2 to be used as a standard, added with the cell-incubated supernatant, and reacted at room temperature for 2 hrs. Thereafter, biotinylated anti-IL-17 or anti-TNF-α was added and reacted at room temperature for 2 hrs, washed four times after the reaction, diluted with a diluted ExtraAvidin-alkaline phosphatase conjugate, and reacted at room temperature for 2 hrs. After the reaction, a PNPP/DEA was added and colored, and absorbance was measured at a wavelength of 405 nm.
# IgG = IgG generation in lupus animal model; assay type: cell-based; conditions: compared with metformin
# Description: In order to examine an effect of suppressing the generation of autoantibody of the biguanide derivative compound of the present invention, the incubated supernatant was collected and the IgG expression degree was examined by using an ELISA. A monoclonal anti-IgG was reacted at 4° C. overnight in a 96-well plate and then a non-specific binding was blocked by a blocking solution. A mouse control serum was continuously diluted by 1/2 to be used as a standard, added with the cell-incubated supernatant, and reacted at room temperature for 2 hrs. Thereafter, HRP-anti-IgG was reacted at room temperature for 2 hrs, washed four times after reaction, added with the diluted HRP-conjugate, and reacted at room temperature for 2 hrs.
# (§4) In order to evaluate a lupus therapeutic effect of the biguanide derivative compound of the present invention, in a lupus animal model, cytotoxicity, autoantibody generation, generation of inflammatory cytokines, and Th17 regulation were measured by the same method as Example 8.
# TNF-α [4] = assay: TNF-α sandwich ELISA, Example 8-3; assay type: cell-based, mouse; conditions: incubated supernatant
# Description: as §3
# Th17 [5] = assay: Th17 activity in lupus animal model; assay type: cell-based
# Description: as §1, §4
# [6] = test system: regulatory T cells (Treg); assay: Regulatory T cell (Treg) expression in rheumatoid arthritis disease model with metabolic syndrome; assay type: cell-based
# Description: Further, in order to examine whether the biguanide derivative compound of the present invention activates the expression of regulatory T cells (Treg), the incubated cells were flow-cytometry by using anti-CD4-percp, anti-CD25-APC, and anti Foxp3-Pe fluorescent antibodies (ab), and as a result, it was verified that SD-196, 216 and 217 activated the Foxp3+ Treg cells (see FIG. 10).
# as §1
# IL-17 [7] = assay: IL-17 expression in lupus animal model; assay type: cell-based
# Description: as §3, with “In” for “In order to evaluate an arthritis therapeutic effect of the biguanide derivative compound of the present invention, in a rheumatoid arthritis animal model, cytotoxicity, generation of autoantibody, expression of inflammatory cytokines and regulatory T cells (Treg), and osteoclast differentiation were measured. Like Examples, metformin was used as a control group. In”
# as §4
# TNF-α [8] = assay: TNF-α expression in lupus animal model; assay type: cell-based
# Description: as §3, with “In” for “In order to evaluate an arthritis therapeutic effect of the biguanide derivative compound of the present invention, in a rheumatoid arthritis animal model, cytotoxicity, generation of autoantibody, expression of inflammatory cytokines and regulatory T cells (Treg), and osteoclast differentiation were measured. Like Examples, metformin was used as a control group. In”
# as §4
# [9] = test system: cells isolated from the spleen; assay: Cytotoxicity MTT assay, Example 8-1 (rheumatoid arthritis evaluation); assay type: cell-based; conditions: mouse spleen cells, anti-CD3 0.5 μg/ml or LPS 100 ng/ml, 3 days
# Description: as §2, with “In order to evaluate an arthritis therapeutic effect of the biguanide derivative compound of the present invention, in a rheumatoid arthritis animal model, cytotoxicity, generation of autoantibody, expression of inflammatory cytokines and regulatory T cells (Treg), and osteoclast differentiation were measured. Like Examples, metformin was used as a control group. In” for “In”
# IL-17 [10] = assay: IL-17 expression in rheumatoid arthritis disease model with metabolic syndrome; assay type: cell-based
# Description: as §3, with “In” for “In order to evaluate an arthritis therapeutic effect of the biguanide derivative compound of the present invention, in a rheumatoid arthritis animal model, cytotoxicity, generation of autoantibody, expression of inflammatory cytokines and regulatory T cells (Treg), and osteoclast differentiation were measured. Like Examples, metformin was used as a control group. In”
# as §1
SMILES,activity of Th17 (Th17 [1]),cytotoxicity [2],differentiation of the osteoclast (osteoclast),IL-17 inflammatory cytokine expression (IL-17 [3]),expression of IgG (IgG),TNF-α inflammatory cytokine expression (TNF-α [4]),activity of Th17 (Th17 [5]),expression of the regulatory T cells (Treg) [6],expression of IL-17 (IL-17 [7]),expression of TNF-α (TNF-α [8]),cytotoxicity (MTT assay) [9],expression of IL-17 (IL-17 [10])
"CC(C)NC(=N)NC(=N)N [SD-000196, 1-isopropylbiguanide]",suppressed,did not have the cytotoxicity,significantly suppress,significantly suppressed,significantly suppressed,significantly suppressed,suppressed,activated,suppressed,suppressed,no cytotoxicity,suppressed
"N=C(N)NC(=N)Nc1ccc(F)cc1F [SD-000217, 1-(2,4-difluorophenyl)biguanide]",suppressed,did not have the cytotoxicity,significantly suppress,significantly suppressed,significantly suppressed,significantly suppressed,suppressed,activated,suppressed,suppressed,no cytotoxicity,suppressed
"NC(N)=N/C(N)=N/c1cccc(F)c1 [SD-000216, 1-(3-fluorophenyl)biguanide]",suppressed,did not have the cytotoxicity,significantly suppress,significantly suppressed,significantly suppressed,significantly suppressed,suppressed,activated,suppressed,suppressed,no cytotoxicity,suppressed

# Reference: patent US10716771B2, “Pharmaceutical composition for preventing or treating immune diseases or inflammatory diseases, containing biguanide derivative compound as active ingredient” (THE CATHOLIC UNIVERSITY OF KOREA INDUSTRY-ACADEMIC …, priority 2013, dated 2020)
